How the values were obtained:
[1] = system: human glioma cell line U343mga; assay: Cell uptake of boronated compounds (boron content by DCP-AES); type: cell-based; details: U343mga cells, 6 hours incubation, 5×10^−4 M boron; for Boron content expressed as a function of total cell protein, Trial 1: trial 1: 7.2 μg boron/ml culture medium; for Boron content expressed as a function of total cell protein, Trial 2: trial 2: 7.7 μg boron/ml culture medium
Method: (§1) Four different tumour cell lines of human origin, including human glioma cell line U343mga, human hepatocarcinoma cell line Hep3B, human breast adenocarcinoma cell line MCF7 and human sarcoma cell line 4SS, were used for in vitro testing of the purified material from Example 3 (hereinafter designated as BF). Cells were plated on non-coated tissue culture plastics and cultured at 37° C. in incubators with humidified air, equilibrated with 5% CO2. They were grown in recommended tissue culture medium, supplemented with 10% FCS and PEST (penicillin 100 IU/ml and streptomycin […]). For passage of cells, cells were trypsinized with trypsin-EDTA (0.25% trypsin, 0.02% EDTA in phosphate buffered saline (PBS) without calcium and magnesium).
U343 mga cells were plated on Petri dishes at 75% cell density and incubated with one of boric acid (BA), vitamin B12 conjugated boron (BB), 1-4-dihydroxyboryl-phenylalanine (BPA) or BF dissolved in tissue culture medium for 6 hours. All four boronated compounds were added to and dissolved in the tissue culture medium at equimolar concentrations with respect to the boron content (5×10^−4 M boron). Incubations were stopped by removing the boron-containing tissue culture medium and by adding cold PBS buffer for washing excess of medium from cells. Cells were immediately harvested by scraping them off the plastic dish using a rubber policeman. They were collected in cold PBS and pelleted by centrifugation.
(§2) Cell samples were taken for total protein analysis according to a standard Bradford procedure. Cell pellets were processed for boron analysis by Direct Current Plasma-Atomic Emission Spectroscopy (DCP-AES). Samples (50-130 mg) were digested at 60° C. with sulfuric acid/nitric acid (1/1). Triton X-100 and water added to give a concentrations of 50 mg tissue/ml, 15% total acid v/v and 5% Triton X-100 v/v. The boron concentrations were based on a known reference sample.

U343mga cells = assay: Intracellular retention of boron after withdrawal of boron containing medium; type: cell-based, human; details: for Boron content in U343mga cells, 0 hour after withdrawal of boron containing medium / Boron content in U343mga cells, 2 hours after withdrawal of boron containing medium / Boron content in U343mga cells, 7 hours after withdrawal of boron containing medium: 18 hours incubation, 5×10^−4 M boron
Method: as §1, §2
U343 mga cells, were plated on Petri dishes at 75% cell density and incubated with one of 1-4-dihydroxyboryl-phenylalanine (BPA) or BF in tissue culture medium for 18 hours. Both boronated compounds were added to the tissue culture medium at equimolar concentrations with respect to the boron content (5×10^−4 M boron). Incubations were stopped by replacing the boron-containing medium with culture medium without boron. Cell samples were harvested at time points 0, 2 and 7 hours where the 0 time point represents immediate after 18 hour incubation of boronated compound.
Cells were washed with cold PBS and harvested by scraping them off the plastic dish using a rubber policeman, collected in cold PBS and pelleted by centrifugation. Cell pellets were analysed for total protein and boron content as described.

U343mga = assay: BF uptake by different tumor cells: U343mga; type: cell-based, human; details: 6 hours incubation
Method: as §1
as §2, with “sample. […]” for “sample.”

[2] = system: human sarcoma cell line 4SS; assay: BF uptake by different tumor cells: 4SS; type: cell-based; details: 6 hours incubation
Method: as §1
as §2, with “sample. […]” for “sample.”

[3] = system: human hepatocarcinoma cell line Hep3B; assay: BF uptake by different tumor cells: Hep3B; type: cell-based; details: 6 hours incubation
Method: as §1
as §2, with “sample. […]” for “sample.”

[4] = system: human breast adenocarcinoma cell line MCF7; assay: BF uptake by different tumor cells: MCF7; type: cell-based; details: 6 hours incubation
Method: as §1
as §2, with “sample. […]” for “sample.”

[5] = system: tumour cell lines of human origin; assay: In vitro studies in tumour cell lines: signs of toxicity; type: cell-based; details: Examples 4-6
Method: as §1

Compound	Boron content expressed as a function of total cell protein, Trial 1 [1]	Boron content in U343mga cells, 0 hour after withdrawal of boron containing medium (U343mga cells)	Boron content in U343mga cells, 2 hours after withdrawal of boron containing medium (U343mga cells)	Boron content in U343mga cells, 7 hours after withdrawal of boron containing medium (U343mga cells)	Boron content expressed as a function of total cell protein, Trial 2 [1]	Share of the total uptake retained in tumour cells (U343mga cells; 7 hours after total depletion of BF in the culture medium)	Boron content expressed as a function of total cell protein, Low cell density (U343mga; 40-50% (low) cell density)	Boron content expressed as a function of total cell protein, High cell density (U343mga; 90-100% (high) cell density)	Boron content expressed as a function of total cell protein, Low cell density ([2]; 40-50% (low) cell density)	Boron content expressed as a function of total cell protein, High cell density ([2]; 90-100% (high) cell density)	Boron content expressed as a function of total cell protein, Low cell density ([3]; 40-50% (low) cell density)	Boron content expressed as a function of total cell protein, High cell density ([3]; 90-100% (high) cell density)	Boron content expressed as a function of total cell protein, Low cell density ([4]; MCF7, 40-50% (low) cell density)	Boron content expressed as a function of total cell protein, High cell density ([4]; MCF7, 90-100% (high) cell density)	Signs of toxicity in in vitro studies [5]
OB(O)O [BA, boric acid]	8 μg boron/g cell protein														
N[C@@H](Cc1ccc(B(O)O)cc1)C(=O)O [BPA, 1-4-dihydroxyboryl-phenylalanine, reference compound]	65 μg boron/g cell protein	0.075 μg boron/g cell pellet	0 μg boron/g cell pellet	0 μg boron/g cell pellet	38 μg boron/g cell protein										
N^2-(4-{[(2-amino-4-oxo-3,4-dihydropteridin-6-yl)methyl]amino}benzoyl)-N-{3-[(1R,9S)-2,3,4,5,6,7,8,10,11,12-decaborabicyclo[7.2.1]dodec-1-yl]propyl}-α-glutamine and N^2-(4-{[(2-amino-4-oxo-3,4-dihydropteridin-6-yl)methyl]amino}benzoyl)-N-[3-(2,3,4,5,6,7,8,10,11,12-decaborabicyclo[7.2.1]dodec-1-yl)propyl]-L-glutamine [BF]	560 μg boron/g cell protein	0.79 μg boron/g cell pellet	0.59 μg boron/g cell pellet	0.3 μg boron/g cell pellet	440 μg boron/g cell protein	40%	108 μg boron/g cell protein	172 μg boron/g cell protein	263 μg boron/g cell protein	367 μg boron/g cell protein	171 μg boron/g cell protein	219 μg boron/g cell protein	108 μg boron/g cell protein	169 μg boron/g cell protein	without any signs of toxicity
